This assay relates to hyaluronidase. In words: degradation of hyaluronic acid by standard hyaluronidase. It counts as biochemical. An excerpt:
In the composition, the nicotinamide is not only a functional excipient adapted to protect the hyaluronic acid by virtue of its antioxidant action, but also acts against the action of the hyaluronidase, allowing the viscosupplementation features to be maintained over time. Experimental tests have shown that in a composition without nicotinamide, the hyaluronic acid is degraded by a 50% standard hyaluronidase after one hour; on the contrary, with a presence of nicotinamide in the percentages described above, the hyaluronic acid degrades by only 20% after one hour, while the normal products on the market degrade by 70%.

Regarding `NC(=O)c1cccnc1` [nicotinamide], the “inhibitory effect on hyaluronidase” value is on record as “inhibitory effect on hyaluronidase”.

These data come from US12622863B2, “Injectable composition and use of said composition” (INNATE S.R.L., priority 2020, dated 2026).
